# Test results from US20220106282A1, “TREATMENT FOR BREAST CANCER, INCLUDING TRIPLE-NEGATIVE BREAST CANCER” (priority 2018, published 2022).
# “And” between values parts separate entries of the source, which are not always exact repeats. Identical values can stand only once. “Also recorded” adds a separate entry of the source. Marks after values point to notes of the source that are not given here.
# Legend:
# [1] = tested on: breast tumors in female FVB mice transgenic for HER-2/neu; assay: Antitumor activity on model of multiple breast tumors in HER-2/neu transgenic mice; conditions: for % of change from baseline (average total tumor volume) / % of change to the initial value (average tumor volume): Day 27 vs Day −1; for Average volume of new tumors, % less than that of the control group: end of observation; for Absolute number of new tumors / Frequency of tumor stabilizations: end of study; for Frequency of tumor stabilizations: volume not increased by more than 20%; for Average volume of new tumors at the end of the observation period (M): listed as medicament
# Method: Two adenocarcinoma subtypes can be differentiated, in particular ER+, PR−, and ER−, PR− [2].
# The study was carried out in female FVB mice transgenic for HER-2/neu by conventional category; the strain was obtained from the mouse bank Charles River Laboratories (Italy). At the beginning of the study the animals were 21-41 weeks old having weight of 25 to 30 g.
# The study medicament was administered i.g. using a metal atraumatic gavage (with the procedure corresponds to the oral route of administration in clinical settings). The medicament was administered in a single daily dose (20 mg/kg of body weight) and 5-fold daily dose of 100 mg/kg of body weight. Ex tempore solutions of the medicament for administration were prepared in olive oil (refined olive oil supplemented with unrefined extra virgin olive oil available under Global Village “Clasico” trademark, lot L:183351116, expiry date 26 Apr. 2020, BAIEO, Spain). The administered volume was 0.1 ml per 10 g of a mouse body weight (0.2 ml of a ready-to-use formulation for a mouse of 20 g). The medicament administration was started 24 hours after the randomization. The duration of the administration course was 27-28 days.
# This dose corresponds to a human daily dose of 20 mg/kg.
# The control groups were given the olive oil (placebo).
# The evaluation criteria included the clinical observation data, animals body weights, time of death (if applicable), tumor growth over time, pathomorphological examination data (verification of a neoplasm during autopsy, assessment of toxic effects by macroscopic presentation of changes in the internal organs).
# The animals body weights were recorded before the first administration of the medicaments and then twice per week using a verified high-speed electronic laboratory balance Ohaus Scout Pro (USA) with a maximum load of 2000 g and a measurement step of 0.1 g.
# Macroscopically detectable tumor nodes were measured in animals once per week during weighing process. Two linear dimensions including the largest one and the largest rectangular to the former were recorded for each of the nodes. The largest dimension was taken as a length (a) and the second dimension as a width (b) of the tumor nodes. A tumor volume was calculated by the expression as follows: […]
# The efficacy of the therapy was assessed by recording a change in the average tumor volume, tumor growth inhibition (TGI), and the average total tumor volumes and its change over time in each of the mice.
# The percent of tumor growth inhibition was calculated by the expression as follows:
# TGI=(Vctrl−Vexp)/Vctrl×100(%),
# where Vctrl is an average tumor volume in a control group, and Vexp is an average tumor volume in an experimental group.
# The primary data from individual forms were transferred to Microsoft Excel 2007 books. The group arithmetic average (M) and standard deviation (m) were calculated for all quantitative data. The statistical analysis was performed using the statistical software GraphPad Prism 6.0. The differences between the groups were assessed using ANOVA regression analysis and the Fisher's exact test.
# uterine body = assay: Hormonal effect: uterine body weight in tumor-bearing mice; type: in vivo, mouse
# Method: To estimate the hormonal effect of the medicament, the weight of the uterine body without uterine horns was measured (Table 9).
# ovariectomized rats = assay: Biochemical parameters of ovariectomized rats; type: in vivo, rat; conditions: ovariectomised rats
# [2] = Acute oral toxicity, OECD 423 test; type: in vivo; conditions: female, FVB transgenic for HER-2/neu, mouse, in vivo, po, oral (i.g.), OECD 423
# [3] = Hormonal effect: uterine body weight in tumor-bearing mice; type: in vivo, mouse
compound,measurement,setting,value
"C[C@H]1Oc2cc(OS(N)(=O)=O)ccc2[C@H]2CC[C@]3(C)C(=O)CCC[C@H]3[C@H]21 [compound of formula (1), 3-O-sulphamoyloxy-7β-methyl-D-homo-6-oxa-8α-estra-1,3,5(10)-trien-17a-one]",Average total volume of tumors in mice (M),"[1]; 20 mg/kg i.g. daily, Day 6",0.86 cm^3
same,Average volume of tumors present at the beginning of the experiment (M),"[1]; 20 mg/kg i.g. daily, Day 6",0.32 cm^3
same,Relative change of the average total volume of tumors to that of Day −1 (M),"[1]; 20 mg/kg i.g. daily, Day 6",20%
same,TGI (average total tumor volume),"[1]; 20 mg/kg i.g. daily, Day 6",−26%
same,TGI (average tumor volume),"[1]; 20 mg/kg i.g. daily, Day 6",−7%
same,Average total volume of tumors in mice (M),"[1]; 20 mg/kg i.g. daily, Day 13",1.04 cm^3
same,Average volume of tumors present at the beginning of the experiment (M),"[1]; 20 mg/kg i.g. daily, Day 13",0.39 cm^3
same,Relative change of the average total volume of tumors to that of Day −1 (M),"[1]; 20 mg/kg i.g. daily, Day 13",38** %
same,TGI (average total tumor volume),"[1]; 20 mg/kg i.g. daily, Day 13",19%
same,TGI (average tumor volume),"[1]; 20 mg/kg i.g. daily, Day 13",30%
same,Average total volume of tumors in mice (M),"[1]; 20 mg/kg i.g. daily, Day 20",1.61 cm^3
same,Average volume of tumors present at the beginning of the experiment (M),"[1]; 20 mg/kg i.g. daily, Day 20",0.6 cm^3
same,Relative change of the average total volume of tumors to that of Day −1 (M),"[1]; 20 mg/kg i.g. daily, Day 20",101** %
same,TGI (average total tumor volume),"[1]; 20 mg/kg i.g. daily, Day 20",−7%
same,TGI (average tumor volume),"[1]; 20 mg/kg i.g. daily, Day 20",9%
same,Average total volume of tumors in mice (M),"[1]; 20 mg/kg i.g. daily, Day 27",2.19 cm^3
same,Average volume of tumors present at the beginning of the experiment (M),"[1]; 20 mg/kg i.g. daily, Day 27",0.81 cm^3
same,Relative change of the average total volume of tumors to that of Day −1 (M),"[1]; 20 mg/kg i.g. daily, Day 27",212** %
same,TGI (average total tumor volume),"[1]; 20 mg/kg i.g. daily, Day 27",−7%
same,TGI (average tumor volume),"[1]; 20 mg/kg i.g. daily, Day 27",9%
same,% of change from baseline (average total tumor volume),[1]; 20 mg/kg i.g. daily,204%
same,% of change to the initial value (average tumor volume),[1]; 20 mg/kg i.g. daily,200%
same,Average total volume of tumors in mice (M),"[1]; 20 mg/kg i.g. daily, Day −1",0.72 cm^3
same,Average volume of tumors present at the beginning of the experiment (M),"[1]; 20 mg/kg i.g. daily, Day −1",0.27 cm^3
same,Relative change of the average total volume of tumors to that of Day −1 (M),"[1]; 20 mg/kg i.g. daily, Day −1",0%
same,TGI (average total tumor volume),"[1]; 20 mg/kg i.g. daily, Day −1",−71%
same,TGI (average tumor volume),"[1]; 20 mg/kg i.g. daily, Day −1",−50%
same,"Average volume of new tumors, % less than that of the control group",[1]; 20 mg/kg i.g. daily,18%
same,Absolute number of new tumors,[1]; 20 mg/kg i.g. daily,29
same,Frequency of tumor stabilizations,[1]; 20 mg/kg i.g. daily,19%
same,Average volume of new tumors at the end of the observation period (M),[1]; 20 mg/kg i.g. daily,0.27±0.05 cm^3 and 0.27 cm^3
same,Average total volume of tumors in mice (M),"[1]; 100 mg/kg i.g. daily, Day 6",0.94 cm^3
same,Average volume of tumors present at the beginning of the experiment (M),"[1]; 100 mg/kg i.g. daily, Day 6",0.38 cm^3
same,Relative change of the average total volume of tumors to that of Day −1 (M),"[1]; 100 mg/kg i.g. daily, Day 6",26%
same,TGI (average total tumor volume),"[1]; 100 mg/kg i.g. daily, Day 6",−38%
same,TGI (average tumor volume),"[1]; 100 mg/kg i.g. daily, Day 6",−27%
same,Average total volume of tumors in mice (M),"[1]; 100 mg/kg i.g. daily, Day 13",1.15 cm^3
same,Average volume of tumors present at the beginning of the experiment (M),"[1]; 100 mg/kg i.g. daily, Day 13",0.46 cm^3
same,Relative change of the average total volume of tumors to that of Day −1 (M),"[1]; 100 mg/kg i.g. daily, Day 13",68** %
same,TGI (average total tumor volume),"[1]; 100 mg/kg i.g. daily, Day 13",11%
same,TGI (average tumor volume),"[1]; 100 mg/kg i.g. daily, Day 13",18%
same,Average total volume of tumors in mice (M),"[1]; 100 mg/kg i.g. daily, Day 20",1.36 cm^3
same,Average volume of tumors present at the beginning of the experiment (M),"[1]; 100 mg/kg i.g. daily, Day 20",0.55 cm^3
same,Relative change of the average total volume of tumors to that of Day −1 (M),"[1]; 100 mg/kg i.g. daily, Day 20",139* %
same,TGI (average total tumor volume),"[1]; 100 mg/kg i.g. daily, Day 20",10%
same,TGI (average tumor volume),"[1]; 100 mg/kg i.g. daily, Day 20",17%
same,Average total volume of tumors in mice (M),"[1]; 100 mg/kg i.g. daily, Day 27",1.74 cm^3
same,Average volume of tumors present at the beginning of the experiment (M),"[1]; 100 mg/kg i.g. daily, Day 27",0.7 cm^3
same,Relative change of the average total volume of tumors to that of Day −1 (M),"[1]; 100 mg/kg i.g. daily, Day 27",198** %
same,TGI (average total tumor volume),"[1]; 100 mg/kg i.g. daily, Day 27",15%
same,TGI (average tumor volume),"[1]; 100 mg/kg i.g. daily, Day 27",21%
same,% of change from baseline (average total tumor volume),[1]; 100 mg/kg i.g. daily,102%
same,% of change to the initial value (average tumor volume),[1]; 100 mg/kg i.g. daily,106%
same,Average total volume of tumors in mice (M),"[1]; 100 mg/kg i.g. daily, Day −1",0.86 cm^3
same,Average volume of tumors present at the beginning of the experiment (M),"[1]; 100 mg/kg i.g. daily, Day −1",0.34 cm^3
same,Relative change of the average total volume of tumors to that of Day −1 (M),"[1]; 100 mg/kg i.g. daily, Day −1",0%
same,TGI (average total tumor volume),"[1]; 100 mg/kg i.g. daily, Day −1",−105%
same,TGI (average tumor volume),"[1]; 100 mg/kg i.g. daily, Day −1",−89%
same,"Average volume of new tumors, % less than that of the control group",[1]; 100 mg/kg i.g. daily,39%
same,Absolute number of new tumors,[1]; 100 mg/kg i.g. daily,25
same,Frequency of tumor stabilizations,[1]; 100 mg/kg i.g. daily,16%
same,Average volume of new tumors at the end of the observation period (M),[1]; 100 mg/kg i.g. daily,0.20±0.05 cm^3 and 0.20 cm^3
same,Tumor growth inhibition compared to Tamoxifen,[1]; FVB mice transgenic for HER-2/neu with breast tumors,inhibits tumor growth to the same extent as clinically approved Tamoxifen
same,Signs of toxic damage to the internal organs at autopsy,"[1]; end of the experiment, 27-28 days of administration",No specific signs of toxic damage to the internal organs were detected
same,Uterine body weight,"uterine body; 20 mg/kg, all mice",48 ± 5 mg
same,Uterine body weight,"uterine body; 20 mg/kg, estrous phase D",49 ± 16 mg
same,Uterine body weight,"uterine body; 20 mg/kg, estrous phase E",47 ± 7 mg
same,Uterine body weight,"uterine body; 100 mg/kg, all mice",50 ± 6 mg
same,Uterine body weight,"uterine body; 100 mg/kg, estrous phase D",26 ± 12 mg
same,Uterine body weight,"uterine body; 100 mg/kg, estrous phase E",56 ± 5 mg
same,Hormonal (uterotropic) effect on the uterus,"uterine body; uterine body weight versus control group, listed as medicament",no uterotropic activity; also recorded: did not differ from that of the control group
same,Uterotropic activity,ovariectomized rats,no uterotropic activity
same,Uterus weight,ovariectomized rats; medicament 5 mg/kg bw,33 ± 3 mg/100 g bw
same,LD50 at 14 days,[2],≥ 5000 mg/kg
same,Body weight,"[3]; 20 mg/kg, all mice",30.2 ± 1.2 g
same,Body weight,"[3]; 20 mg/kg, estrous phase D",30.3 ± 1.8 g
same,Body weight,"[3]; 20 mg/kg, estrous phase E",30.1 ± 1.7 g
same,Body weight,"[3]; 100 mg/kg, all mice",30.3 ± 0.8 g
same,Body weight,"[3]; 100 mg/kg, estrous phase D",33.1 ± 4.5 g
same,Body weight,"[3]; 100 mg/kg, estrous phase E",29.6 ± 0.5 g
